# Measured values published in article PMC12129716, “Isolation of a Unique Monoterpene Diperoxy Dimer From Ziziphora clinopodioides subsp. bungeana Together With Triterpenes With Antidiabetic Properties” (Phytochemical Analysis, 2025).
# Entries after “also recorded” stand apart in the source; their conditions may differ. Like-named read-outs stand apart in the source and are kept apart here.
# Columns and labels:
# α‐glucosidase [1] = assay: α-Glucosidase inhibitory assay (p-nitrophenyl-α-D-glucopyranoside, microplate reader); assay type: biochemical; conditions: mean ± SEM, three independent experiments in triplicate
# Method: After incubation (15 min, 37°C), the reaction was initiated by adding 20 μL of 2.5‐mM p‐nitrophenyl‐α‐D‐glucopyranoside. After an additional 15 min at 37°C, the reaction was stopped with 80 μL of 0.2‐M Na2CO3. The released p‐nitrophenol was quantified spectrophotometrically at λ 405 nm using a microplate reader. One set of mixtures prepared with an equivalent volume of methanol instead of the test samples was used as a control. Another set of mixtures prepared with an equivalent volume of phosphate buffer instead of the enzyme was used as a blank. The inhibition of the enzyme (%) was calculated according to the formula: […]. […] The results are summarized in Table 2 and expressed as the mean ± SEM for three independent experiments measured in triplicate.
# [2] = target: protein tyrosine phosphatase 1B (PTP1B); conditions: cited from earlier work
# GLUT4 [3] = assay: GLUT4 translocation to plasma membrane fraction in C2C12 myotubes (Western blot); assay type: cell-based, mouse; conditions: 5 μM, 24 h, C2C12 differentiated myotubes, vs DMSO control
# Method: The C2C12 cell line was incubated in containers with a surface area of 75 cm^2 (tissue‐culture treated) to 100% confluence in full serum DMEM High Glucose medium. Then the culture medium was changed to DMEM High Glucose medium, supplemented with antibiotics, and 2% horse serum (Biosera) to start the differentiation of myoblasts into myocytes. The medium was renewed every 2 days, and the formation of myocytes was observed using a microscope. After 6 days of differentiation, the culture medium was changed to DMEM High Glucose serum‐free medium, and the test compounds were added at a non‐toxic concentration of 5 μM dissolved in DMSO. The effect of the test compounds on the viability of C2C12 myocytes was determined using a WST‐1 kit (Roche, Basel, Switzerland), according to the manufacturer's manual. The final concentration of DMSO in the medium was 0.1% (v/v). […]
# The effects of the test compounds on the protein expression of GLUT4 in the total cellular fraction and on GLUT4 translocation to the plasma membrane fraction were measured using PAGE and Western blot with specific antibodies. […]
# To quantify the effects of the test compounds on GLUT4 expression and translocation, the optical densities (OD) of the corresponding bands shown by Western blot analysis were calculated and expressed as a ratio of ODGLUT4 / ODβ‐actin for GLUT4 expression in whole‐cell lysates. […]
# L6 myotube cells = tested on: L6 myotube cells; design: method as in PMID 19548274; conditions: cited from earlier work
# GLUT4 [4] = tested on: GLUT4; design: method as in PMID 17201692; conditions: 3T3-L1 adipocytes; cited from earlier work
# α‐glucosidase [5] = conditions: cited from earlier work
SMILES,% of inhibition (200 μM) (α‐glucosidase [1]),IC50 (α‐glucosidase [1]),also measured
"CC1CC=C(C(C)(C)OOC23CC(C)CC=C2C(C)(C)OO3)C(=O)C1 (centres unmarked) [Compound 1, ziziphora diperoxy dimer]",6.0 ± 1.9%,> 200 µM,
"CC1=C2C=C3CCC4C(C)(C)CCC[C@@]4(C)C3CC2OC1=O (some centres unmarked) [Compound 2, jolkinolide E]",25.0 ± 1.4%,> 200 µM,
"C=C(C)[C@@H]1CC[C@]2(CO)CC[C@]3(C)[C@H](CC[C@@H]4[C@@]5(C)CC[C@H](O)C(C)(C)[C@@H]5CC[C@]43C)[C@@H]12 [Compound 3, betulin]",24.0 ± 6.0%,> 200 µM,
"C=C(CO)[C@@H]1CC[C@]2(C(=O)O)CC[C@]3(C)C(CCC4[C@@]5(C)CC[C@H](O)C(C)(C)C5CC[C@]43C)C12 (some centres unmarked) [Compound 4, 30‐hydroxybetulinic acid]",34.0 ± 4.9%,> 200 µM,
"C[C@@H]1CC[C@]2(C(=O)O)CC[C@]3(C)C(=CC[C@@H]4[C@@]5(C)CC[C@H](O)C(C)(C)[C@@H]5CC[C@]43C)[C@@H]2[C@]1(C)O [Compound 5, pomolic acid]",41.9 ± 4.1%,> 200 µM,IC50 ([2]; read-out: PTP1B IC50): 3.9 ± 0.8 µM; GLUT4 translocation (GLUT4/ATPA1 ratio in plasma membrane fraction) (GLUT4 [3]): increased; also recorded: tripling; 2-deoxy-D-[3H]-glucose uptake increase (L6 myotube cells): 1.6 fold
"C[C@@H]1[C@H](O)C[C@]2(C(=O)O)CC[C@]3(C)C(=CCC4[C@@]5(C)CC[C@H](O)C(C)(C)C5CC[C@]43C)C2[C@H]1C (stereo partly drawn) [Compound 6, 21α‐hydroxyursolic acid]",26.8 ± 2.1%,> 200 µM,
"C[C@@H]1CC[C@]2(C(=O)O)CC[C@]3(C)C(=CC(=O)C4[C@@]5(C)CC[C@H](O)C(C)(C)C5CC[C@]43C)C2[C@H]1C (some centres unmarked) [Compound 7, 11‐oxoursolic acid]",,163 ± 15.4 µM,
"CC1(C)CC[C@]2(C(=O)O)CC[C@]3(C)C(=CC(=O)C4[C@@]5(C)CC[C@H](O)C(C)(C)C5CC[C@]43C)C2C1 (some centres unmarked) [Compound 8, 11‐oxooleanolic acid]",49.9 ± 3.3%,> 200 µM,
"C[C@H]1[C@H](C)CC[C@]2(C(=O)O)CC[C@]3(C)C(=CC[C@@H]4[C@@]5(C)CC[C@H](O)C(C)(C)[C@@H]5CC[C@]43C)[C@H]12 [Compound 9, ursolic acid]",65.7 ± 4.1%,,IC50 ([2]; read-out: PTP1B IC50): 3.1 ± 0.2 µM; Translocation of GLUT4 (GLUT4 [4]): enhanced; 2-deoxy-D-[3H]-glucose uptake increase (L6 myotube cells): 1.84 fold
"CC1(C)CC[C@]2(C(=O)O)CC[C@]3(C)C(=CC[C@@H]4[C@@]5(C)CC[C@H](O)C(C)(C)[C@@H]5CC[C@]43C)[C@@H]2C1 [Compound 10, oleanolic acid]",67.5 ± 1.4%,,
"C=C(C)[C@@H]1CC[C@]2(C(=O)O)CC[C@]3(C)[C@H](CC[C@@H]4[C@@]5(C)CC[C@H](O)C(C)(C)[C@@H]5CC[C@]43C)[C@@H]12 [Compound 11, betulinic acid]",64.4 ± 2.0%,45.3 ± 1 µM,"PTP1B IC50 [2]: 0.7 ± 0.03 µg/mL; IC50 ([2]; conversion of the μg/mL value, read-out: PTP1B IC50 (converted to μM)): 1.53 µM; GLUT4 translocation (GLUT4/ATPA1 ratio in plasma membrane fraction) (GLUT4 [3]): no activity"
CC1(C)[C@@H](O)CC[C@]2(C)[C@H]3C(=O)C=C4[C@@H]5C[C@@](C)(C(=O)O)CC[C@]5(C)CC[C@@]4(C)[C@]3(C)CC[C@@H]12 [glycyrrhetic acid],,,α-Glucosidase inhibitory activity (α‐glucosidase [5]): inactive
